Reference: patent US8088757B2, “Betulinol derivatives as anti-cancer agents” (priority 2004, dated 2012)
Where two headings read alike, the source gives them in different places.

What was measured:
[1] = Solubility in DMSO diluted with culture medium (GC standard curve); details: for State of solution: 0.5 mg/mL BA
Experimental: The residue was dissolved in chloroform analyzed on GC.
Ethyl ether was then evaporated. […] Concentration of drug in the above solutions was analyzed by GC and determined from the standard solubility curve.

[2] = Solubilization in PBS containing human γ-globulin, human albumin and ethanol; details: 1 × 10^−3 mol/L
Excerpt: Human γ-Globulin and human albumin are two major biocompatible components in human serum.

[3] = 1.34 mg in 31 μL ethanol + 700 μL human serum
LNCaP xenografts = test system: LNCaP xenografts; set-up: species or system athymic mice; details: mouse, in vivo
Experimental: All the animal studies were performed according to the guidelines and approval of the Institutional Animal Care and Use Committee and Research Animal Resource Center of Weill Medical College of Cornell University, New York. Twelve mice of 13 weeks of age were purchased from The National Cancer Institute (NCI) and were housed in a pathogen-free environment under controlled conditions of light and humidity and with free access to food and water. LNCaP cells were grown in RPMI-1640 with 10% FBS until 80-90% confluent. Cells were scraped into PBS and collected by centrifugation. The LNCAP cell pellets were suspended in Matrigel (Ref) at 2.5×10^7 cells/ml. Mice were injected subcutaneously (“s.c.”) with 200 μl (5×10^6 cells) of the cell suspension at one site on the flank. Visible tumor grew after 7-8 days following implantation and mice were divided into three groups of four mice each.
Mice received s.c. injection daily for ten days. […] Tumors were measured daily with calipers, and tumor volumes were calculated by the formula: π/6(l×w×h). Animals were also weighed daily and monitored for general health status and vital signs of possible toxicity due to treatment. At the end of the treatment period, the animals were sacrificed and tumors were excised, weighed and prepared for immunohistochemical and histological studies. […]

184B5/HER = test: In vitro cytotoxicity, Breast (1), 184B5/HER; format: cell-based; details: 1 × 10^−4 M
LNCaP = test: MTT cytotoxicity assay, LNCaP prostate cancer cells; format: cell-based, human; details: Homo sapiens, read-out: Growth Inhibition %; for inhibition at 25 µM: 2.5 × 10^−5 M; for inhibition at 2.5 µM: 2.5 × 10^−6 M; for inhibition at 0.25 µM: 2.5 × 10^−7 M
Experimental: The human prostate cancer LNCaP, PC-3, and DU-145 cell lines, as well as human fibroblast cell line, were obtained from the American Type Culture Collection (“ATCC”) and maintained in RPMI-1640, F-12k, and MEM mediums, respectively, supplemented with 10% FBS. Cell lines were maintained at 37° C. under a humidified atmosphere and 5% CO2 for testing of the cytotoxicity of betulinol derivatives. The cytotoxicity assay was performed using MTT assay according to the instructions of ATCC protocol. Cells 1×10^5 in 0.1 ml/well were plated in 96-well culture plates (Costar) and incubated with a different dilution of betulinol derivatives for 24, 48, and 72 hours. Ten μl of 3-[4,5-dimethylthiazol-2-yl]-2,5 diphenyl tetrazolium bromide was added into each well at the end of each incubation period. The reaction product, formazan, was dissolved in the detergent, and the absorbance was read at 540 nm (Ref).
However, these compounds were not tested on prostate cancer LNCaP cell line by NCI. […] The anti-tumor activity of the compounds was determined at three doses and the total growth inhibition kill effect as pertinent of the control at 24, 48, and 72 hours as presented in Table 11.

C=C(C)C1CCC2(C(=O)O)CC[C@]3(C)[C@H](CC[C@@H]4[C@@]5(C)CCC(=O)C(C)(C)[C@@H]5CC[C@]43C)C12 (stereo partly drawn) [Compound 4, Betulonic Acid]
State of solution ([1]; 3% DMSO in culture medium): Suspension
State of solution ([1]; 9% DMSO in culture medium): Suspension
State of solution ([1]; 14% DMSO in culture medium): Cloudy
State of solution ([1]; 20% DMSO in culture medium): clear solution
State of solution ([1]; 20% DMSO in culture medium, listed as BA): Clear
amount of betulonic acid dissolved ([1]; out of 3 mg, 1% DMSO in culture medium containing 10% FBS, supernatant after centrifugation): 0.4 mg
Observation ([2]; ethanol 220 μL, γ-globulin 1.48 mL, albumin 0.49 mL): Cloudy
Observation ([2]; ethanol 280 μL, γ-globulin 0 mL, albumin 2.50 mL): Complete
Observation ([2]; ethanol 280 μL, γ-globulin (27 mg/mL in PBS) 2.50 mL, albumin (42 mg/mL in PBS) 0 mL): Suspension
Observation ([2]; ethanol 308 μL, γ-globulin 0.69 mL, albumin 2.07 mL): Almost Clear
Observation ([2]; ethanol 330 μL, γ-globulin 1.48 mL, albumin 1.48 mL): Little Cloudy
Observation ([2]; ethanol 352 μL, γ-globulin 0.32 mL, albumin 2.85 mL): Clear
Observation [3]: Clear Solution
general health and vital signs during treatment (LNCaP xenografts): no adverse effects on vital signs
Percent Killed (184B5/HER): Toxic
inhibition at 25 µM (LNCaP; 24 hours): 11.4%
inhibition at 2.5 µM (LNCaP; 24 hours): 14.7%
inhibition at 0.25 µM (LNCaP; 24 hours): 3.01%
inhibition at 25 µM (LNCaP; 48 hours): 32.6%
inhibition at 2.5 µM (LNCaP; 48 hours): 43%
inhibition at 0.25 µM (LNCaP; 48 hours): 28.3%
